In ChEMBL document CHEMBL4340557, “Fasudil dichloroacetate (FDCA), an orally available agent with potent therapeutic efficiency on monocrotaline-induced pulmonary arterial hypertension rats” (Bioorg Med Chem Lett, 2019):

Tests used:
Rattus norvegicus [1] = test: (§1) Anti-hypersensitive activity in MCT-induced pulmonary arterial hypertension Sprague-Dawley rat model assessed as mean pulmonary artery pressure at 43.3 mg/kg, po administered daily for 14 days starting from 14 days post-MCT challenge and measured post-last dose by pressure transducer-coupled polygraphy (reference value: 36 +/- 2.83 mmHg); type: functional
Rattus norvegicus [2] = test: as §1, with “right ventricular systolic” for “mean pulmonary artery”, “59.06” for “36”, “3.26” for “2.83”; type: functional
Rattus norvegicus [3] = test: (§2) Anti-hypersensitive activity in MCT-induced pulmonary arterial hypertension Sprague-Dawley rat model assessed as pulmonary artery medial thickness at 43.3 mg/kg, po administered daily for 14 days starting from 14 days post-MCT challenge and measured post-last dose by hematoxylin and eosin staining-based microscopic analysis (reference value: […] +/- […]); type: functional
Rattus norvegicus [4] = test: (§3) Anti-hypersensitive activity in MCT-induced pulmonary arterial hypertension Sprague-Dawley rat model assessed as lung fibrosis at 43.3 mg/kg, po administered daily for 14 days starting from 14 days post-MCT challenge and measured post-last dose by Masson's trichrome staining-based microscopic analysis (reference value: 6.12 +/- 1.66%); type: functional
[5] = Plasma concentration in Sprague-Dawley rat assessed as fasudil level at 14.4 mg/kg, po measured at 0.25 hrs by LC-MS/MS analysis; type: ADME, organism-based; conditions: in vivo
[6] = Plasma concentration in Sprague-Dawley rat assessed as fasudil level at 14.4 mg/kg, po measured at 0.5 hrs by LC-MS/MS analysis; type: ADME, organism-based; conditions: in vivo
[7] = Plasma concentration in Sprague-Dawley rat assessed as fasudil level at 14.4 mg/kg, po measured at 1 hr by LC-MS/MS analysis; type: ADME, organism-based; conditions: in vivo
[8] = Plasma concentration in Sprague-Dawley rat assessed as fasudil level at 14.4 mg/kg, po measured at 2 hrs by LC-MS/MS analysis; type: ADME, organism-based; conditions: in vivo
[9] = Plasma concentration in Sprague-Dawley rat assessed as fasudil level at 14.4 mg/kg, po measured at 4 hrs by LC-MS/MS analysis; type: ADME, organism-based; conditions: in vivo
[10] = Elimination rate constant in Sprague-Dawley rat at 14.4 mg/kg, po by LC-MS/MS analysis; type: ADME, organism-based; conditions: in vivo
[11] = Tmax in Sprague-Dawley rat at 14.4 mg/kg, po by LC-MS/MS analysis; type: ADME, organism-based; conditions: in vivo
[12] = Cmax in Sprague-Dawley rat at 14.4 mg/kg, po by LC-MS/MS analysis; type: ADME, organism-based; parameters: dose 14.4 mg/kg, route oral; conditions: in vivo
[13] = AUC (0 to t) in Sprague-Dawley rat at 14.4 mg/kg, po by LC-MS/MS analysis; type: ADME, organism-based; conditions: in vivo
[14] = AUC (0 to infinity) in Sprague-Dawley rat at 14.4 mg/kg, po by LC-MS/MS analysis; type: ADME, organism-based; parameters: dose 14.4 mg/kg, time infinity, route oral; conditions: in vivo
[15] = AUMC (0 to t) in Sprague-Dawley rat at 14.4 mg/kg, po by LC-MS/MS analysis; type: ADME, organism-based; conditions: in vivo
[16] = AUMC (0 to infinity) in Sprague-Dawley rat at 14.4 mg/kg, po by LC-MS/MS analysis; type: ADME, organism-based; conditions: in vivo
[17] = MRT in Sprague-Dawley rat at 14.4 mg/kg, po by LC-MS/MS analysis; type: ADME, organism-based; conditions: in vivo
Rattus norvegicus [18] = test: Hemodynamic activity in Sprague-Dawley rat assessed as effect on right ventricular systolic pressure at 43.3 mg/kg, po administered daily for 2 weeks by pressure transducer-coupled polygraphy; type: ADME, organism-based; conditions: in vivo, 336 h
Rattus norvegicus [19] = test: Hemodynamic activity in Sprague-Dawley rat assessed as effect on right ventricular hypertrophy index at 43.3 mg/kg, po administered daily for 2 weeks by pressure transducer-coupled polygraphy; type: ADME, organism-based; conditions: in vivo, 336 h
Rattus norvegicus [20] = test: Hemodynamic activity in Sprague-Dawley rat assessed as effect on mean pulmonary artery pressure at 43.3 mg/kg, po administered daily for 2 weeks by pressure transducer-coupled polygraphy; type: ADME, organism-based; conditions: in vivo, 336 h
Rattus norvegicus [21] = test: Hemodynamic activity in Sprague-Dawley rat assessed as effect on mean systemic arterial pressure at 43.3 mg/kg, po administered daily for 2 weeks by pressure transducer-coupled polygraphy; type: ADME, organism-based; conditions: in vivo, 336 h
Rattus norvegicus [22] = test: (§4) Anti-hypersensitive activity in MCT-induced pulmonary arterial hypertension Sprague-Dawley rat model assessed as reduction in cardiomyocyte hypertrophy by measuring cross-sectional area of cardiomyocyte at 43.3 mg/kg, po administered daily for 14 days starting from 14 days post-MCT challenge and measured post-last dose by hematoxylin and eosin staining-based microscopic analysis (reference value: 418 +/- 50.88 micrometer2); type: functional
Rattus norvegicus [23] = test: as §3, with “reduction in cardiomyocyte hypertrophy by measuring cardiac” for “lung”, “11.74” for “6.12”, “3.24 %)” for “1.66%)”; type: functional; parameters: scale not given: the % may be the effect or the level left
[24] = Cardiotoxicity in Sprague-Dawley rat assessed as effect on cross-sectional area of cardiomyocyte at 43.3 mg/kg, po administered daily for 2 weeks by hematoxylin and eosin staining-based microscopic analysis (reference value: 209.53 +/- 26.44 micrometer2); type: toxicity, organism-based; conditions: in vivo, 336 h
[25] = Cardiotoxicity in Sprague-Dawley rat assessed as cardiac fibrosis at 43.3 mg/kg, po administered daily for 2 weeks by hematoxylin and eosin staining-based microscopic analysis (reference value: 2.99 +/- 1.34 %); type: toxicity, organism-based; conditions: in vivo, 336 h
Rattus norvegicus [26] = test: as §1, with “15.5” for “43.3”; type: functional
Rattus norvegicus [27] = test: as §1, with “right ventricular systolic” for “mean pulmonary artery”, “15.5” for “43.3”, “59.06” for “36”, “3.26” for “2.83”; type: functional
Rattus norvegicus [28] = test: as §1, with “right ventricular hypertrophy index” for “mean pulmonary artery pressure”, “15.5” for “43.3”, “[…]” for “36”, “[…]” for “2.83”; type: functional
Rattus norvegicus [29] = test: as §2, with “15.5” for “43.3”; type: functional
Rattus norvegicus [30] = test: as §3, with “15.5” for “43.3”; type: functional
Rattus norvegicus [31] = test: Hemodynamic activity in Sprague-Dawley rat assessed as effect on mean systemic arterial pressure at 15.5 mg/kg, po administered daily for 2 weeks by pressure transducer-coupled polygraphy; type: ADME, organism-based; conditions: in vivo, 336 h
Rattus norvegicus [32] = test: as §4, with “15.5” for “43.3”; type: functional
Rattus norvegicus [33] = test: as §3, with “reduction in cardiomyocyte hypertrophy by measuring cardiac” for “lung”, “15.5” for “43.3”, “11.74” for “6.12”, “3.24 %)” for “1.66%)”; type: functional; parameters: scale not given: the % may be the effect or the level left

O=C(O)C(Cl)Cl.O=S(=O)(c1cccc2cnccc12)N1CCCNCC1
Activity (Rattus norvegicus [1]): 25.67 mmHg | Activity (Rattus norvegicus [2]): 49.54 mmHg | Activity (Rattus norvegicus [3]): 0.2 | Activity (Rattus norvegicus [4]): 6.12% | Cp [5]: 113 ng/mL | Cp [6]: 55.5 ng/mL | Cp [7]: 38 ng/mL | Cp [8]: 18.4 ng/mL | Cp [9]: 4.46 ng/mL | k el [10]: 0.000219 s⁻¹ | Tmax [11]: 15 min | Cmax [12]: 113 ng/mL | AUC(0-t) [13]: 109 ng·h/mL | AUC(0-inf) [14]: 117 ng·h/mL | AUMCt [15]: 119 hr.hr.ng/ml | AUMC [16]: 160 hr.hr.ng/ml | MRT [17]: 77.4 min | Activity (Rattus norvegicus [18]): Non-Toxic | Activity (Rattus norvegicus [19]): Non-Toxic | Activity (Rattus norvegicus [20]): Non-Toxic | Activity (Rattus norvegicus [21]): Non-Toxic | Activity (Rattus norvegicus [22]): 282.4 um2 | Activity (Rattus norvegicus [23]): 3.69% | Activity [24]: 190.6 um2 | Activity [25]: 2.25%

O=C([O-])C(Cl)Cl.[Na+] [SODIUM DICHLOROACETATE]
Activity (Rattus norvegicus [26]): 34 mmHg | Activity (Rattus norvegicus [27]): 57.4 mmHg | Activity_index (Rattus norvegicus [28]): 0.564 | Activity (Rattus norvegicus [29]): 0.3 | Activity (Rattus norvegicus [30]): 12.45% | Activity (Rattus norvegicus [31]): Non-Toxic | Activity (Rattus norvegicus [32]): 387.53 um2 | Activity (Rattus norvegicus [33]): 8.47%
